The values that follow come from patent US20040076974A1, “Liver necrosis predictive genes” (priority 2002, published 2004).

Data set [1] relates to Male Sprague-Dawley rats. It counts as in vivo, rat. Particulars: intraperitoneal injection.
The subject of data set [2] is Sprague Dawley rats. Particulars: rat. The gist of the method:
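Toxicity calls (necrosis present or absent at 72 h) and histopathology scores were correlated with tissue gene expression from Crl:CD Sprague Dawley rats. Animals, usually 3 treated with compound by i.p. route and 3 given vehicle, were killed at 6, 24 or 72 h and tissues frozen immediately in liquid nitrogen.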

Data set [3] has as its system toxicologically relevant rat genes (rat CT array). Particulars: rat, in vivo.

SMILES strings stand for the structures. “And” between values parts separate entries of the source, which are not always exact repeats. Identical values can stand only once. Like-named read-outs stand apart in the source and are kept apart here.

`CC(=N)S` [thioacetamide]: the “hepatocellular necrosis by histopathology” value in data set [1] (200 mg/kg) is “induced hepatocellular necrosis”.
With `S=C=Nc1cccc2ccccc12` [1-naphthylisothiocyanate], the “hepatocellular necrosis by histopathology” value in data set [1] (100 mg/kg) was “induced hepatocellular necrosis”. In addition, in data set [2] (high dose of Table 1, liver necrosis at 72 hours), the “toxicity at the high dose” value is recorded as “produced toxicity”. Moreover, the “Liver Necrosis” value is “no” in data set [2] (intraperitoneal, dose 15 mgkg, 72 hours after treatment) and “Yes” in data set [2] (intraperitoneal, dose 60 mgkg, 72 hours after treatment). The “Score (histopathology liver necrosis severity score)” value is 1 in data set [2] (intraperitoneal, dose 15 mgkg, 72 hours, 1 = not remarkable, 2 and higher increasing severity); 2 in data set [2] (intraperitoneal, dose 60 mgkg, 72 hours, 1 = not remarkable, 2 and higher increasing severity).
Regarding `C[C@@H]1C[C@H]2[C@@H]3CCC4=CC(=O)C=C[C@]4(C)[C@@]3(F)[C@@H](O)C[C@]2(C)[C@@]1(O)C(=O)CO` [dexamethasone], in data set [2] (Sprague Dawley, in vivo, ip, 8 mg/kg, 72 h), the “Score (histopathology liver necrosis severity score)” value was found to be 1. Besides, the “Score (histopathology liver necrosis severity score)” value in data set [2] (Sprague Dawley, in vivo, ip, 30 mg/kg, 72 h) stood at 1. Also, the “Liver Toxicity Necrosis Classification” value in data set [2] (in vivo) is reported as “no”. Besides, the “Liver Necrosis” value in data set [2] (in vivo, ip, 8 mg/kg) is listed as “no”. In addition, the “Liver Necrosis” value in data set [2] (in vivo, ip, 30 mg/kg) is on record as “no”. In data set [3], the “60S ribosomal protein L6 expression” value is 0.8901 and 1.098 (2×) and 0.9353; the “Adenine nucleotide translocator 1 expression” value was 0.9053 and 1.087 and 0.9653 and 0.9797; the “Alpha-2-macroglobulin, sequence 2 expression” value is 0.8488 and 1.069 and 0.9789 and 0.9595; the Alpha-2-microglobulin expression was 0.9657 and 0.9413. Moreover, in data set [3], the Alpha-tubulin expression was 0.8272 and 1.251 and 0.9313 and 1.093; the “Apolipoprotein All expression” value was 0.7858 and 0.4198 and 0.803 and 0.4911; the “Beta-tubulin, class I expression” value was 0.8776 and 1.559 and 0.9809 and 1.151; the “Calpactin I heavy chain expression” value is 1.271 and 1.029. In data set [3], the Cofilin expression is 1.006 and 0.9999; the “Collagen type II expression” value is 0.9739 and 1.08 and 1.31; the “Cystatin C expression” value is 0.8226 and 0.8364 and 1.078; the “Cytochrome P450 2C11 expression” value was 1.275. Also, in data set [3], the “Dynamin-1 (D100) expression” value is 1.017 and 1.094 and 0.908 and 0.9644; the “Elongation factor-1 alpha expression” value was 0.8912 and 1.18 and 1.019; the “F1-ATPase beta subunit expression” value was 0.9797 and 1.576 and 1.032 and 1.236; the “Gamma-actin, cytoplasmic expression” value is 0.9178 and 0.883 and 0.9507. In data set [3], the “Glutathione S-transferase theta-1 expression” value is 0.9901 and 0.9291 and 0.9991 and 0.8886; the Glycine methyltransferase expression is 1.124 and 1.982 and 1.013 and 1.714; the Heme oxygenase expression was 0.8094 and 0.8311 and 0.7467; the “High affinity IgE receptor gamma chain (FcERIgamma) expression” value is 0.9808 and 0.8055 and 0.8812 and 0.8054. Also, in data set [3], the “IgE binding protein expression” value was 1.039 and 0.992 and 1.096; the “Insulin-like growth factor I, exon 6 expression” value was 0.8498 and 0.631 and 1.058 and 0.6827; the “Melanoma-associated antigen ME491 expression” value was 1.042 and 1.057 and 0.9592 and 0.993; the “NADP-dependent isocitrate dehydrogenase, cytosolic expression” value was 0.9222 and 0.7332 and 0.8853 and 0.7428. Further, in data set [3], the NIPK expression was 0.9259 and 0.8897 and 0.7728; the Osteoactivin expression was 0.8926 and 1.029 and 0.8681; the “Phase-1 RCT-39 expression” value came to 0.9168; the “Phase-1 RCT-57 expression” value is recorded as 0.9696. For the same compound, in data set [3], the “Phase-1 RCT-78 expression” value is recorded as 0.8839; the “Phase-1 RCT-81 expression” value was found to be 0.9341; the “Phase-1 RCT-107 expression” value was 1.099 and 1.846 and 1.664; the “Phase-1 RCT-138 expression” value is 0.9192 and 0.9399 and 0.9819. Further, in data set [3], the “Phase-1 RCT-146 expression” value amounted to 0.9664; the “Phase-1 RCT-149 expression” value is listed as 0.7735; the “Phase-1 RCT-164 expression” value is 0.8597 and 0.7256 and 0.7203; the “Phase-1 RCT-179 expression” value was 0.9599 and 0.8496. Moreover, in data set [3], the “Phase-1 RCT-192 expression” value amounted to 0.9855; the “Phase-1 RCT-295 expression” value is given as 0.9503; the Stathmin expression is 1.058 and 1.063; the “Uncoupling protein 2 expression” value was 0.8754 and 1.097 and 0.9302. In addition, the “alpha-1,2-fucosyltrans-ferase expression” value in data set [3] is 0.8942 and 0.8707 and 0.7596.
